pIC50: −log10 of the molar value. Structures can show the parent of a compound that is named as a salt.
Experiments:
[1] = target: T1, MET (Homo sapiens, UniProt P08581); experiment: Test C: inhibition of the autophosphorylation of MET, ELISA technique (pppY1230, 1234, 1235), MKN45 cells; type: cell-based
T1 construct: endogenous in cells; host or cells: MKN45 cells
Outline: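 MKN45 cells adhered 24 h, then treated 1 h with compound at 6 concentrations in duplicate, final range 10000 to 30 nM. Lysates assayed by phospho-MET (pY1230/1234/1235) sandwich ELISA with HRP chromogen read at 450 nm.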

[2] = system: MKN45 cells; experiment: Test D: cellular proliferation by 14C-thymidine pulse, MKN45 cells; type: cell-based; settings: cell line not stated (HCT116 or MKN45)
Outline: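 MKN45 cells (7500/well, RPMI + 10% foetal calf serum) treated with 10 concentrations, 10000 to 0.3 nM in 3-fold steps, duplicate. 14C-thymidine (0.1 μCi/well) added at 72 h; incorporation counted after 24 h pulse, 96 h total treatment.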

[3] = Homo sapiens, MKN-45, cellular proliferation by 14C-thymidine pulse
[4] = cellular proliferation by 14C-thymidine pulse

T1 sequence (P08581 25-1390): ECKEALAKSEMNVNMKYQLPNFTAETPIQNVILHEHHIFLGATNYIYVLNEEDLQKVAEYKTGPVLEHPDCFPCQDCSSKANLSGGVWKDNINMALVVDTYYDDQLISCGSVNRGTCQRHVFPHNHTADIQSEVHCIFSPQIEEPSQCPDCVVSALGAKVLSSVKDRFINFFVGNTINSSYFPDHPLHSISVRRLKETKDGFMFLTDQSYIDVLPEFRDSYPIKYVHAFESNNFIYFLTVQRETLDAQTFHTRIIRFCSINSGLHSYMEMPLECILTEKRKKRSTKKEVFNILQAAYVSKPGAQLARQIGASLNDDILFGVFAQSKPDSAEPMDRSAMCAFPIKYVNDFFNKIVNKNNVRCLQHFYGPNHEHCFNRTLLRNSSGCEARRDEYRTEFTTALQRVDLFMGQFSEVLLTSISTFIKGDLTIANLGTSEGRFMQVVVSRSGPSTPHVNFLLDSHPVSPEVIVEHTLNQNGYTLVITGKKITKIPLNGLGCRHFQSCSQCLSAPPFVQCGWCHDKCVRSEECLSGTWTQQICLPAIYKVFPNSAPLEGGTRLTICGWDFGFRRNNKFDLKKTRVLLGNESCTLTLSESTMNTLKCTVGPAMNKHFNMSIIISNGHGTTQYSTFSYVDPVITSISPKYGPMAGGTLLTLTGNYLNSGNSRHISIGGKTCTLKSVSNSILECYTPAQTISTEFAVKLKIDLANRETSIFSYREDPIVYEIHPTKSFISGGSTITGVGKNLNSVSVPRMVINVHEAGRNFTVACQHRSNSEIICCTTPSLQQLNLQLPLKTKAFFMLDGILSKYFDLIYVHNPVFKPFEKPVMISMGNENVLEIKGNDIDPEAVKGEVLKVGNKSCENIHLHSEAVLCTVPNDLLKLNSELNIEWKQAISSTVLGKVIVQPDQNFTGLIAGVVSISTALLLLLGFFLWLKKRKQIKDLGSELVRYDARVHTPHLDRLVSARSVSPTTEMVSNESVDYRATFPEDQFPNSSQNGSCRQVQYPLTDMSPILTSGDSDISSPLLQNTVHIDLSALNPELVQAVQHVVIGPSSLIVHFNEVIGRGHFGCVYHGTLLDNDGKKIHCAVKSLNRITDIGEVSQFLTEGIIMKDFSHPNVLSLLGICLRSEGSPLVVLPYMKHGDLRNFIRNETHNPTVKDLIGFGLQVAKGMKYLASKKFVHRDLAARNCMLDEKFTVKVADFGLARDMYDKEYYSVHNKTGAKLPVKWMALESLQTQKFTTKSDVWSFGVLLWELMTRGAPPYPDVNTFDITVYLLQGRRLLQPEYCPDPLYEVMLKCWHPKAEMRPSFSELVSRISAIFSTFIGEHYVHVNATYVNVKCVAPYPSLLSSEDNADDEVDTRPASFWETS

Compound	pIC50 [1]	pIC50 [2, 3]	pIC50 [2, 4]
CC(Oc1cc2sc(NC(=O)NCCN3CCNC(=O)C3)nc2cc1F)c1c(Cl)ccc(F)c1Cl (stereo not shown) [Example 130, 1-{6-[1-(2,6-dichloro-3-fluorophenyl)ethoxy]-5-fluoro-1,3-benzothiazol-2-yl}-3-[2-(3-oxopiperazin-1-yl)ethyl]urea]	> 6.30	5.00 to 6.30	
CC(Oc1ccc2nc(NC(=O)NCCCN3CCN(Cc4c(F)cccc4Cl)CC3)sc2c1)c1c(Cl)ccc(F)c1Cl (stereo not shown) [Example 46, 1-{3-[4-(2-chloro-6-fluorobenzyl)piperazin-1-yl]propyl}-3-{6-[1-(2,6-dichloro-3-fluorophenyl)ethoxy]-1,3-benzothiazol-2-yl}urea]	5.00 to 6.30	< 5.00	
CC(Oc1ccc2nc(NC(=O)NCCCN3CCCCCC3)sc2c1)c1c(Cl)ccc(F)c1Cl (stereo not shown) [Example 48, 1-(3-azepan-1-ylpropyl)-3-{6-[1-(2,6-dichloro-3-fluorophenyl)ethoxy]-1,3-benzothiazol-2-yl}urea]	> 6.30	< 5.00	
CCN1CCN(CCNC(=O)Nc2nc3cc(F)c(OC(C)c4c(Cl)ccc(F)c4Cl)cc3s2)CC1 (single isomer, unassigned) [Example 102, 1-{6-[(1S*)-1-(2,6-dichloro-3-fluorophenyl)ethoxy]-5-fluoro-1,3-benzothiazol-2-yl}-3-[2-(4-ethylpiperazin-1-yl)ethyl]urea]	5.00 to 6.30		5.00 to 6.30
CC(Oc1ccc2nc(NC(=O)NCCN3CCOCC3)[nH]c2c1)c1c(Cl)ccc(F)c1Cl (stereo not shown) [Example 4, 4-{2-[({6-[1-(2,6-Dichloro-3-fluorophenyl)ethoxy]-1H-benzimidazol-2-yl}carbamoyl)amino]ethyl}morpholin-4-ium trifluoroacetate]	5.00 to 6.30	5.00 to 6.30	
CC(Oc1ccc2nc(NC(=O)NCCCN3CCN(Cc4ccccc4)CC3)sc2c1)c1c(Cl)ccc(F)c1Cl (stereo not shown) [Example 49, 1-[3-(4-benzylpiperazin-1-yl)propyl]-3-{6-[1-(2,6-dichloro-3-fluorophenyl)ethoxy]-1,3-benzothiazol-2-yl}urea]	> 6.30	5.00 to 6.30	
CC(Oc1ccc2nc(NC(=O)NCCCN3CCCCC3)sc2c1)c1c(Cl)ccc(F)c1Cl (stereo not shown) [Example 44, 1-{6-[1-(2,6-dichloro-3-fluorophenyl)ethoxy]-1,3-benzothiazol-2-yl}-3-(3-piperidin-1-ylpropyl)urea]	> 6.30	> 6.30	
C[C@@H](Oc1cc2sc(NC(=O)NCCN3CCOCC3)nc2cc1F)c1c(Cl)ccc(F)c1Cl (single isomer, unassigned) [Example 33, 1-{6-[(1R)-(2,6-dichloro-3-fluorophenyl)ethoxy]-5-fluoro-1,3-benzothiazol-2-yl}-3-(2-morpholin-4-ylethyl)urea or 1-{6-[(1S)-(2,6-dichloro-3-fluorophenyl)ethoxy]-5-fluoro-1,3-benzothiazol-2-yl}-3-(2-morpholin-4-ylethyl)urea]	5.00 to 6.30		5.00 to 6.30
CC(Oc1ccc2nc(NC(=O)NCCN3CCOCC3)sc2c1)c1c(F)cccc1F (stereo not shown) [Example 18, 1-{6-[1-(2,6-difluorophenyl)ethoxy]-1,3-benzothiazol-2-yl}-3-(2-morpholin-4-ylethyl)urea]	5.00 to 6.30	5.00 to 6.30	
CC(Oc1cc2sc(NC(=O)NCCO)nc2cc1F)c1c(Cl)ccc(F)c1Cl (single isomer, unassigned) [Example 99, 1-{6-[(1R*)-1-(2,6-dichloro-3-fluorophenyl)ethoxy]-5-fluoro-1,3-benzothiazol-2-yl}-3-(2-hydroxyethyl)urea]	> 6.30	> 6.30	
CC(Oc1cc2sc(NC(=O)NCCN3CCN(C)CC3)nc2cc1F)c1c(F)ccc(Cl)c1Cl (single isomer, unassigned) [Example 117, 1-{6-[(1S*)-1-(2,3-dichloro-6-fluorophenyl)ethoxy]-5-fluoro-1,3-benzothiazol-2-yl}-3-[2-(4-methylpiperazin-1-yl)ethyl]urea]	5.00 to 6.30		5.00 to 6.30
